How the values were obtained:
[1] = test system: Human immunodeficiency virus; experiment: Concentration required to inhibit 50% of HIV (human immunodeficiency virus) replication; format: functional, organism-based; conditions: Human immunodeficiency virus 1
H9 = experiment: Concentration required to inhibit 50% growth of uninfected H9 cells; format: functional, cell-based; conditions: Homo sapiens
[2] = Therapeutic index expressed as ratio of IC50 for 50% growth inhibition to EC50 for 50% replication inhibition; format: cell-based; conditions: human, H9 cells; read-out: TI

Row | SMILES | EC50 [1] | IC50 (H9) | selectivity ratio [2]
1 | CC1(C)Oc2ccc3ccc(=O)oc3c2[C@@H](OC(=O)C23CCC(C)(C(=O)O2)C3(C)C)[C@H]1OC(=O)C12CCC(C)(C(=O)O1)C2(C)C (stereo partly specified) | 0.049 µM | > 16.1 µM | > 328
2 | CCC1(C)Oc2ccc3c(C)cc(=O)oc3c2[C@@H](OC(=O)C23CCC(C)(C(=O)O2)C3(C)C)[C@H]1OC(=O)C12CCC(C)(C(=O)O1)C2(C)C (stereo partly specified) | 0.22 µM | > 38.4 µM | > 175
3 | Cc1cc(=O)oc2c3c(ccc12)OC[C@H](OC(=O)C12CCC(C)(C(=O)O1)C2(C)C)[C@@H]3OC(=O)C12CCC(C)(C(=O)O1)C2(C)C (stereo partly specified) | 6.9 µM | > 41.1 µM | > 6
4 | CCC1(CC)Oc2ccc3c(C)cc(=O)oc3c2[C@@H](OC(=O)C23CCC(C)(C(=O)O2)C3(C)C)[C@H]1OC(=O)C12CCC(C)(C(=O)O1)C2(C)C (stereo partly specified) | 2.84 µM | > 37.6 µM | > 13.2
5 | Cc1cc(=O)oc2c3c(ccc12)OC(C)(C)[C@H](OC(=O)C12CCC(C)(C(=O)O1)C2(C)C)[C@@H]3OC(=O)C12CCC(C)(C(=O)O1)C2(C)C (stereo partly specified) | 0.0059 µM | > 38.9 µM | > 6600

The next lines start with results.

Row | EC50 [1] | SMILES | IC50 (H9) | selectivity ratio [2]
6 | 6.4 µM | CCCC1(C)Oc2ccc3c(C)cc(=O)oc3c2[C@@H](OC(=O)C23CCC(C)(C(=O)O2)C3(C)C)[C@H]1OC(=O)C12CCC(C)(C(=O)O1)C2(C)C (stereo partly specified) | > 37.6 µM | > 5.9
7 | 0.04 µM | Cc1cn([C@H]2C[C@H](N=[N+]=[N-])[C@@H](CO)O2)c(=O)[nH]c1=O [ZIDOVUDINE] | 1870 µM | 39000

From ChEMBL document CHEMBL1138701, “Anti-AIDS agents. Part 62: anti-HIV activity of 2'-substituted 4-methyl-3',4'-di-O-(-)-camphanoyl-(+)-cis-khellactone (4-methyl DCK) analogs” (Bioorg Med Chem Lett, 2004)
